pIC50: −log10 of the molar value. Structures can show the parent of a compound that is named as a salt. Some results are limits rather than exact numbers.

Common to all, as to type: cell-based
The test system of test [1] is HTT mRNA. Briefly: Splicing RT-qPCR assay, canonical (CJ) and alternative (AJ) junction mRNA, K562 cells. Particulars: Homo sapiens, K562.3 cells, 24 hours; for AC50: read-out: HTT AJ (AC50, increase in AJ mRNA); for pIC50: read-out: HTT CJ (IC50, decrease in CJ mRNA). As to the method: (§1) Compounds described herein were used to modulate RNA transcript abundance in cells. The expression of a target mRNA was measured by detecting the formation of an exon-exon junction in the canonical transcript (CJ). A compound mediated exon-inclusion event was detected by observing an increase in formation of a new junction with an alternative exon (AJ). Real-time qPCR assays were used to detect these splicing switches and interrogate the potency of various compounds towards different target genes. A high-throughput real time quantitative PCR (RT-qPCR) assay was developed to measure these two isoforms of the mRNA (CJ and AJ) for exemplary genes, such as HTT, SMN2, and MYB, together with a control housekeeping gene, GAPDH or GUSB or PPIA, used for normalization. Briefly, the A673 or K562 cell line was treated with various compounds described herein (e.g., compounds of Formula (I)). After treatment, the levels of the HTT, MYB, or SMN2 mRNA targets were determined from each sample of cell lysate by cDNA synthesis followed by qPCR.
(§2) • Cells-to-CT 1-step kit: ThermoFisher A25602, Cells-to-CT lysis reagent: ThermoFisher 4391851C, TaqMan™ Fast Virus 1-Step Master Mix: ThermoFisher 4444436 • GAPDH: VIC-PL, ThermoFisher 4326317E (Assay: Hs99999905_m1)—used for K562/suspension cell lines • GUSB: VIC-PL, ThermoFisher 4326320E (Assay: Hs99999908_m1)—used for K562/suspension cell lines • PPIA: VIC-PL, ThermoFisher 4326316E (Assay: Hs99999904_m1)—used for A673/adherent cell lines
(§3) The K562 cell line was cultured in IMDM with 10% FBS. For K562, cells were diluted with full growth media and plated in either a 96-well plate (50,000 cells in 50 uL media per well) or a 384-well plate (8,000-40,000 cells in 45 uL media per well). An 11-point 3-fold serial dilution of the compounds were made in DMSO then diluted in media in an intermediate plate. Compound was transferred from the intermediate plate to the cell plate with the top dose at a final concentration of 10 uM in the well. Final DMSO concentration was kept at or below 0.25%. Final volume was 100 uL for 96-well plate and 50 uL for 384-well plate. The cell plate was then placed in an incubator at 37° C. with 5% CO2 for 24 hours.
(§4) The cells were then gently washed with 50 uL-100 uL cold PBS before proceeding to addition of lysis buffer. 30 uL-50 uL of room temperature lysis buffer with DNAse I (and optionally RNAsin) was added to each well. Cells were shaken/mixed thoroughly at room temperature for 5-10 minutes for lysis to take place and then 3 uL-5 uL of room temperature stop solution was added and wells were shaken/mixed again. After 2-5 minutes, the cell lysate plate was transferred to ice for RT-qPCR reaction setup. The lysates could also be frozen at −80° C. for later use.
(§5) In some cases, a direct lysis buffer was used. An appropriate volume of 3× lysis buffer (10 mM Tris, 150 mM NaCl, 1.5%-2.5% Igepal and 0.1-1 U/uL RNAsin, pH 7.4) was directly added to either K562 or A673 cells in media and mixed by pipetting 3 times. The plates were then incubated at room temperature with shaking/rocking for 20-50 minutes to allow for lysis to take place. After this time, the cell lysate plate was transferred to ice to set up for the RT-qPCR reactions. The lysates could also be frozen at −80° C. for later use.
(§6) To set up 10 uL RT-qPCR reactions, cell lysates were transferred to 384-well qPCR plates containing the master mix according to the table below. The plates were sealed, gently vortexed, and spun down before the run. The volumes were adjusted accordingly in some instances where the reaction was carried in 20 uL. The table below summarizes the components of the RT-qPCR reactions:
(§7) The RT-qPCR reaction was performed using a QuantStudio (ThermoFisher) under the following fast cycling conditions. All samples and standards were analyzed at least in duplicate. In some instances, bulk room temperature (RT) step of 5-10 minutes was completed for all plates before proceeding with qPCR. […]

Test [2] relates to MYB mRNA. The test is described as above. The note with it: Homo sapiens, K562.3 cells, 24 hours; for AC50: read-out: MYB AJ (AC50, increase in AJ mRNA); for pIC50: read-out: MYB CJ (IC50, decrease in CJ mRNA). As to the method: as §1, §2, §3, §4, §5, §6, §7
Test [3] has as its system HTT mRNA. Briefly: Gene panel canonical junction qPCR assay, decrease in CJ mRNA, Table 3. The note with it: decrease in canonical junction (CJ) mRNA, gene panel qPCR, Table 3. The method in brief:
(§8)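 Eleven-point dose responses from 10 uM final, 24 h, DMSO ≤0.25%, in A673 or K562 cells. Relative quantification by 2^(−ΔΔCt) against housekeeper and vehicle was converted to percent response over fixed ΔCt windows and fitted to yield IC50.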
(In general: Quantitative PCR measures a nucleic acid by following its amplification.)

The subject of test [4] is MYB mRNA. The description is as above. Particulars: decrease in canonical junction (CJ) mRNA, gene panel qPCR, Table 3. The method in brief:
as §8

Test [5] relates to SMN2 mRNA. Described as above. The note with it: decrease in canonical junction (CJ) mRNA, gene panel qPCR, Table 3. In short, it runs like this:
as §8

The test system of test [6] is SH-SY5Y (human neuroblastoma) cells. Briefly: Cell viability, Cell Titer Glo 2.0 assay. Particulars: read-out: Viability SHSY5Y.3 GI50. In short, it runs like this:
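Following a 72 h incubation (37 °C, 5% CO2, 0.1% DMSO final), compound toxicity toward SH-SY5Y cells was quantified by CellTiter-Glo 2.0.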

As for `Cc1cn2cc(NC(=O)c3ccc(N4CC[C@@H]5CNCC[C@@H]54)c4cn(C)nc34)cc(F)c2n1` (stereo in doubt) [Compound 101, N-(8-fluoro-2-methyl-imidazo[1,2-a]-pyridin-6-yl)-2-methyl-4-(octahydro-pyrrolo[3,2-c]-pyridin-1-yl)indazole-7-carboxamide hydrochloride], the values for the AC50 in test [1] and in test [2] were 1000 to 10000 nM and 100 to 1000 nM, respectively. Further, the pIC50 in test [1] was 5.00 to 6.00; in test [2], 6.00 to 7.00; in test [3] it was 5.00 to 6.00; in test [4], 6.00 to 7.00; in test [5], more than 7.00. Besides, in test [6], the GI50 lay in the range of 1000 to 10000 nM.

As to `Cc1cn2cc(NC(=O)c3ccc(N4CCC5NCCCC54)c4cn(C)nc34)cc(F)c2n1` (centres unmarked) [Compound 100, N-(8-fluoro-2-methylimidazo[1,2-a]pyridin-6-yl)-2-methyl-4-(octahydropyrrolo[3,2-b]pyridin-1-yl)indazole-7-carboxamide], the AC50 in test [1] fell in the range of 1000 to 10000 nM; in test [2] it was 100 to 1000 nM. The pIC50 in test [1] was 5.00 to 6.00; in test [2] it was 6.00 to 7.00; in test [3], 5.00 to 6.00; in test [4], 6.00 to 7.00; in test [5] it was more than 7.00. Besides, the 50% growth inhibitory concentration (GI50) in test [6] was in the range of 1000 to 10000 nM.

Take `CN[C@@H]1CN(c2ccc(C(=O)Nc3cc(F)c4nc(C)cn4c3)c3nn(C)cc23)C[C@H]1C` [Compound 107, N-(8-fluoro-2-methyl-imidazo[1,2-a]pyridin-6-yl)-2-methyl-4-[(3R,4S)-3-methyl-4-(methylamino)pyrrolidin-1-yl]indazole-7-carboxamide]: the concentration at half-maximal activity (AC50) in test [1] was more than 10000 nM; in test [2], 100 to 1000 nM. The negative-log IC50 (pIC50) in test [1] is 5.00 to 6.00; in test [2], 6.00 to 7.00; in test [3], 5.00 to 6.00; in test [4], 6.00 to 7.00; in test [5] it was more than 7.00. The GI50 in test [6] was in the range of 1000 to 10000 nM.

For `CN[C@@H]1CN(c2ccc(C(=O)Nc3cc(F)c4nc(C)cn4c3)c3nn(C)cc23)C[C@@H]1C` [Compound 108, N-(8-fluoro-2-methyl-imidazo[1,2-a]pyridin-6-yl)-2-methyl-4-[(3S,4S)-3-methyl-4-(methylamino)-pyrrolidin-1-yl]indazole-7-carboxamide], the AC50 was more than 10000 nM in test [1] and 100 to 1000 nM in test [2]. For the same molecule, the pIC50 in test [1] is 5.00 to 6.00; in test [2] it was 6.00 to 7.00; in test [3] it was 5.00 to 6.00; in test [4] it was 6.00 to 7.00; in test [5] it was more than 7.00. Besides, in test [6], the concentration for 50% growth inhibition (GI50) lay in the range of 1000 to 10000 nM.

For the molecule `COCCN[C@H]1CCN(c2ccc(C(=O)Nc3cc(F)c4nc(C)cn4c3)c3nn(C)cc23)C1` [Compound 112, N-(8-fluoro-2-methyl-imidazo[1,2-a]pyridin-6-yl)-4-[(3S)-3-(2-methoxyethylamino)pyrrolidin-1-yl]-2-methyl-indazole-7-carboxamide], the results for the AC50 in test [1] and in test [2] were more than 10000 nM and less than 100 nM, respectively. Further, the negative-log IC50 (pIC50) is 5.00 to 6.00 in test [1]; 6.00 to 7.00 in test [2]; 5.00 to 6.00 in test [3]; 6.00 to 7.00 in test [4]; more than 7.00 in test [5]. For the same molecule, the 50% growth inhibitory concentration (GI50) in test [6] was 1000 to 10000 nM.

Take `Cc1cn2cc(NC(=O)c3ccc(N4CC[C@H](NCCO)C4)c4cn(C)nc34)cc(F)c2n1` [Compound 115, N-(8-fluoro-2-methylimidazo-[1,2-a]-pyridin-6-yl)-4-[(3S)-3-(2-hydroxy-ethylamino)-pyrrolidin-1-yl]-2-methylindazole-7-carboxamide]: the figures for the concentration at half-maximal activity (AC50) in test [1] and in test [2] were 1000 to 10000 nM and 100 to 1000 nM, respectively. The pIC50 was 5.00 to 6.00 in test [1]; 6.00 to 7.00 in test [2]; 5.00 to 6.00 in test [3]; 6.00 to 7.00 in test [4]; more than 7.00 in test [5]. The GI50 in test [6] lay within 1000 to 10000 nM.

Consider `C#CCN[C@@H]1CCN(c2ccc(C(=O)Nc3cc(F)c4nc(C)cn4c3)c3nn(C)cc23)C1` [Compound 122], for which the concentration at half-maximal activity (AC50) in test [1] was in the range of 1000 to 10000 nM; in test [2], 100 to 1000 nM. Also, the negative-log IC50 (pIC50) in test [1] is 5.00 to 6.00; in test [2], 6.00 to 7.00; in test [3], 5.00 to 6.00; in test [4], 6.00 to 7.00; in test [5], more than 7.00. In test [6], the GI50 fell in the range of 1000 to 10000 nM.

Regarding `Cc1cn2cc(NC(=O)c3ccc(N4CC[C@@H](NCC56CC(CO5)C6)C4)c4cn(C)nc34)cc(F)c2n1` [Compound 124, N-(8-fluoro-2-methyl-imidazo[1,2-a]pyridin-6-yl)-2-methyl-4-[(3R)-3-(2-oxabicyclo[2.1.1]hexan-1-ylmethylamino)pyrrolidin-1-yl]indazole-7-carboxamide], the concentration at half-maximal activity (AC50) in test [1] was more than 10000 nM; in test [2], 100 to 1000 nM. The negative-log IC50 (pIC50) in test [1] is less than 5.00; in test [2], 5.00 to 6.00; in test [3], less than 5.00; in test [4], 5.00 to 6.00; in test [5], more than 7.00. In addition, the GI50 in test [6] lay in the range of 1000 to 10000 nM.

As to `Cc1cn2cc(NC(=O)c3ccc(N4CC[C@H](NCC56CC(CO5)C6)C4)c4cn(C)nc34)cc(F)c2n1` [Compound 125, N-(8-fluoro-2-methyl-imidazo[1,2-a]-pyridin-6-yl)-2-methyl-4-[(3R)-3-(2-oxabicyclo-[2.1.1]hexan-1-ylmethyl-amino)pyrrolidin-1-yl][6.1]-indazole-7-carboxamide], the concentration at half-maximal activity (AC50) in test [1] is more than 10000 nM; in test [2], 100 to 1000 nM. Besides, the pIC50 is less than 5.00 in test [1]; 6.00 to 7.00 in test [2]; less than 5.00 in test [3]; 6.00 to 7.00 in test [4]; more than 7.00 in test [5]. For the same molecule, the 50% growth inhibitory concentration (GI50) in test [6] fell in the range of 100 to 1000 nM.

Consider `CN[C@H]1C[C@H](C)N(c2ccc(C(=O)Nc3cc(F)c4nc(C)cn4c3)c3nn(C)cc23)C1` [Compound 127, N-(8-fluoro-2-methyl-imidazo[1,2-a]pyridin-6-yl)-2-methyl-4-[(2S,4S)-2-methyl-4-(methylamino)-pyrrolidin-1-yl]indazole-7-carboxamide], for which the half-maximal activity concentration (AC50) in test [1] and in test [2] was more than 10000 nM in each case. Besides, the pIC50 in test [1] is 5.00 to 6.00; in test [2], less than 5.00; in test [3], 5.00 to 6.00; in test [4], less than 5.00; in test [5] it was 6.00 to 7.00. In addition, in test [6], the concentration for 50% growth inhibition (GI50) fell in the range of 1000 to 10000 nM.

A word on the AC50: it is the concentration giving half of the maximal activity seen. Broadly, the pIC50 is the negative decadic logarithm of the IC50, by convention in mol/L. By GI50 is commonly meant the concentration at which growth is held to half of that of the control.
